From the NIST ThermoML archive (doi:10.1016/j.tca.2013.03.025)

Test: refractive index (Na D-line) (dimensionless); xn = mol fraction of the nth substance listed
Details: 101 kPa, Liquid, Standard Abbe refractometry

CCCCOC(=O)C(C)O (stereo not given) [butyl 2-hydroxypropanoate] + CC(O)CO
refractive index
Details | x1 = 0.0999 | x1 = 0.2 | x1 = 0.3 | x1 = 0.3999 | x1 = 0.4998 | x1 = 0.6 | x1 = 0.6996 | x1 = 0.7999 | x1 = 0.9 | x1 = 1
288.15 K | 1.43214 | 1.43049 | 1.42918 | 1.42809 | 1.42709 | 1.42629 | 1.42548 | 1.42482 | 1.42412 | 1.42379
293.15 K | 1.43038 | 1.42865 | 1.42726 | 1.42611 | 1.42506 | 1.42421 | 1.42336 | 1.42266 | 1.42191 | 1.42152
298.15 K | 1.42861 | 1.42683 | 1.42535 | 1.42414 | 1.42303 | 1.42211 | 1.42124 | 1.42048 | 1.4197 | 1.41925
303.15 K | 1.42682 | 1.42494 | 1.4234 | 1.42214 | 1.42099 | 1.42002 | 1.4191 | 1.41831 | 1.41749 | 1.41697
308.15 K | 1.42503 | 1.42307 | 1.42146 | 1.42013 | 1.41894 | 1.4179 | 1.41696 | 1.41611 | 1.41528 | 1.4147
313.15 K | 1.42323 | 1.42118 | 1.4195 | 1.41814 | 1.41687 | 1.41575 | 1.41482 | 1.41392 | 1.41307 | 1.41241
318.15 K | 1.42143 | 1.41927 | 1.41751 | 1.41605 | 1.41479 | 1.41365 | 1.41265 | 1.41169 | 1.41083 | 1.41006
323.15 K | 1.41962 | 1.4173 | 1.41556 | 1.41404 | 1.41275 | 1.41156 | 1.41049 | 1.4095 | 1.40859 | 1.40778

CCCCOC(=O)C(C)O (stereo not given) [butyl 2-hydroxypropanoate] + CCCO
refractive index
Details | x1 = 0.1 | x1 = 0.2 | x1 = 0.3001 | x1 = 0.3998 | x1 = 0.5 | x1 = 0.5999 | x1 = 0.7001 | x1 = 0.7996 | x1 = 0.8998 | x1 = 1
288.15 K | 1.39449 | 1.4003 | 1.4052 | 1.40922 | 1.41285 | 1.41543 | 1.41816 | 1.42021 | 1.42209 | 1.42379
293.15 K | 1.39238 | 1.39818 | 1.40305 | 1.40704 | 1.41067 | 1.41321 | 1.41593 | 1.41798 | 1.41984 | 1.42152
298.15 K | 1.39028 | 1.39605 | 1.40088 | 1.40485 | 1.40846 | 1.41101 | 1.41369 | 1.41572 | 1.41758 | 1.41925
303.15 K | 1.38813 | 1.39389 | 1.3987 | 1.40265 | 1.40623 | 1.40877 | 1.41144 | 1.41346 | 1.4153 | 1.41697
308.15 K | 1.38599 | 1.3917 | 1.39651 | 1.40042 | 1.40398 | 1.40652 | 1.40919 | 1.4112 | 1.41304 | 1.41469
313.15 K | 1.38382 | 1.38951 | 1.39427 | 1.3982 | 1.4017 | 1.40425 | 1.40691 | 1.40893 | 1.41077 | 1.4124
318.15 K | 1.3816 | 1.38726 | 1.39198 | 1.39591 | 1.39938 | 1.40195 | 1.40455 | 1.40658 | 1.40842 | 1.41005
323.15 K | 1.37938 | 1.38505 | 1.38973 | 1.39364 | 1.3971 | 1.39967 | 1.40228 | 1.40433 | 1.40617 | 1.40778

CCCCOC(=O)C(C)O (stereo not given) [butyl 2-hydroxypropanoate] + OCCCO
refractive index
Details | x1 = 0.0999 | x1 = 0.2 | x1 = 0.3001 | x1 = 0.4 | x1 = 0.4999 | x1 = 0.5999 | x1 = 0.6996 | x1 = 0.8001 | x1 = 0.9 | x1 = 1
288.15 K | 1.43875 | 1.43674 | 1.43484 | 1.43308 | 1.43138 | 1.42969 | 1.42809 | 1.42652 | 1.4251 | 1.42379
293.15 K | 1.43724 | 1.4351 | 1.43311 | 1.43126 | 1.42947 | 1.4277 | 1.42602 | 1.42438 | 1.4229 | 1.42152
298.15 K | 1.43568 | 1.43346 | 1.43136 | 1.42942 | 1.42754 | 1.42569 | 1.42396 | 1.42225 | 1.4207 | 1.41925
303.15 K | 1.43417 | 1.4318 | 1.4296 | 1.42758 | 1.42563 | 1.42369 | 1.42187 | 1.4201 | 1.4185 | 1.41697
308.15 K | 1.43265 | 1.43015 | 1.42783 | 1.42571 | 1.42367 | 1.42167 | 1.4198 | 1.41796 | 1.41629 | 1.4147
313.15 K | 1.43112 | 1.42848 | 1.42606 | 1.42385 | 1.42173 | 1.41964 | 1.4177 | 1.41579 | 1.41408 | 1.41241
318.15 K | 1.4296 | 1.42681 | 1.42426 | 1.42197 | 1.41977 | 1.41759 | 1.41556 | 1.41358 | 1.41183 | 1.41006
323.15 K | 1.42813 | 1.42537 | 1.42267 | 1.42009 | 1.41772 | 1.41555 | 1.41347 | 1.41153 | 1.40962 | 1.40778
